# Source: patent US10722582B2, “Targeted antimicrobial photodynamic therapy” (Purdue Research Foundation, priority 2018, dated 2020)
# Columns and labels:
# MRSA383 = assay: Antibacterial activity assay with LED light; type: cell-based, Staphylococcus aureus
# Procedure: (§1) Antibacterial activity assay general protocol: Used LED light to test conditions. Bacteria were grown in TS broth, followed by 3 mM bipyridine in TS broth until log phase. Bacteria were then diluted with PBS, to OD 0.1 (˜10^) and then to ˜10^7 cfu/mL. 100 uL of bacteria were placed in 96 well plates with the appropriate GaPpIX concentration. 2× serial dilutions were then done to obtain other GaPpIX concentrations. Each concentration was done in triplicate. Bacteria were left incubating and irradiating for different amount of times at different light powers or left in the dark. 10× Serial dilutions were done and bacteria were plated for colony counting using the drop-plate technique. Colonies were counted after 24 hours. As reported herein, a 3-log reduction equals measurable antimicrobial action; a 6-log reduction equals total eradication.
# (§2) Stock solution preparation (AVM-3-36, 10 nm AgNP). Prepared a solution of (AVM-2-273) GaPpIX-apoHb 1 mg/mL in MP H2O, deaerated. Took 10 mL of 10 nm AgNPs, centrifuged at 900 G for 5 min (Beckman, 3100 RPM), took supernantant and added 200 uL of GaPpIXHb. After overnight, centrifuged 3000 RPM g for 5 minutes (Beckman). Took supernantant and centrifuged using a 100 K CentriCon tube at 4000 RPM for 5 minutes, 3×. Added 15 mM borate buffer to NPs. Based on calibration curve, the stock solution is 1.94 ug/mL AgNP, so stock: 79 μg/mL AgNP, 10.37 μg/mL GaPpIXHb, 0.446 μg/mL GaPpIX (refer to AVM-2-293A and AVM-3-3).
# (§3) The following antibacterial activity measurements were assayed in the presence of AgNP.
# MRSA386 = assay: Antibacterial activity assay with LED light; type: cell-based, Staphylococcus aureus
# Procedure: as §1, §2, §3
# MRSA387 = assay: Antibacterial activity assay with LED light; type: cell-based, Staphylococcus aureus
# Procedure: as §1, §2, §3
# MRSA385 = assay: Antibacterial activity assay with LED light; type: cell-based, Staphylococcus aureus
# Procedure: as §1, §2, §3
# [1] = Photophysical measurements (absorption, fluorescence quantum yield); type: physicochemical
# Description: Hemin chloride and all reagents were obtained from commercial sources, and used as received unless otherwise noted. Dimethyl sulfoxide (DMSO) was distilled over CaH2 under reduced pressure. Deionized water was obtained from an ultrafiltration system (Milli-Q, Millipore) with a resistivity >18 MΩ·cm, and passed through a 0.22-μm filter to remove particulate matter. Absorption spectra were collected on a Varian Cary50 spectrometer; fluorescence emission data were collected on a Cary Eclipse fluorimeter with a gate time of 5 ms. ^1H NMR spectra were obtained in CDCl3 or DMSO-d6 using a Varian 800-MHz spectrometer; all chemical shifts (δ) reported in ppm.
# The quantum yield of Ga-PpIX in deaerated DMSO was determined to be 6.3%, using Ru(II)(bipy)3Cl2 in aerated acetonitrile as a standard.
# CSHR-expressing bacteria = assay: Bacterial uptake of GaPpIX, time to saturation; type: cell-based
# Procedure: Bacteria were cultured and assayed in iron-deficient media unless otherwise noted. A stock solution of Ga-PpIX (14.6 μM) was prepared by dispersing 5 mg in 1 mL of 10% DMSO in PBS for 10 minutes in an ultrasonic cleaning bath protected from light, followed by filtration and 10× dilution in PBS just prior to use. Bacterial suspensions (0.5 mL) were treated with freshly prepared solutions of PpIX derivatives for specified periods (5-15 min), then harvested by centrifugation at 5.2 g for 5 minutes, redispersed twice in 0.5 mL deionized water, and centrifuged a third time. A 10-μL aliquot of concentrated bacteria was deposited onto a glass slide and dried in air for 20 min, then imaged by fluorescence microscopy as described above. For details on fluorescence image processing and quantitative analysis, see Supporting Information.
# Darkfield and fluorescent images were acquired in succession, with the former used to map regions of interest (ROIs) by tracing the outlines of bacteria (FIG. 8). Three images were acquired for each sample; in each case, the tracing map was overlaid onto the fluorescence image to calculate pixel intensities within each ROI, using the mean pixel intensity for quantitative analysis. […]
# HEK cells = assay: Cytotoxicity against HEK cells; details: read-out: IC50 (cytotoxicity)
substance,measurement,setting,value
Ga(III)-protoporphyrin [Ga-PpIX (1)],concentration for 3-log reduction,MRSA383,59 nM
same,concentration for 6-log reduction,MRSA383,118 nM
same,concentration for 3-log reduction,MRSA386,118 nM
same,concentration for 6-log reduction,MRSA386,235 nM
same,concentration for 3-log reduction,MRSA387,59 nM
same,concentration for 6-log reduction,MRSA387,1900 nM
same,concentration for 3-log reduction,MRSA385,89 nM
same,concentration for 6-log reduction,MRSA385,470 nM
same,molar extinction coefficient ε,"[1]; DMSO, λmax=410 nm, 0.4-10 μM",154000 M⁻¹ cm⁻¹
same,fluorescence quantum yield,"[1]; deaerated DMSO, Ru(II)(bipy)3Cl2 in aerated acetonitrile as standard",6.3%
same,time to saturation of uptake,CSHR-expressing bacteria,under 15 minutes
same,IC50,HEK cells,> 10 µM
